Publication PMC11683478, “Bioprospecting of culturable marine biofilm bacteria for novel antimicrobial peptides” (iMeta, 2024)
Where a SMILES comes first, the peptide text is derived from it. Where no end group is shown, it is not given here.

Experiments:
[1] = test system: eight pathogenic bacterial strains; experiment: MIC, panel statement; type: cell-based; settings: panel of eight strains, CAMHB, 37°C
Description: Eight bacterial strains were utilized in the antibacterial experiment. S. aureus ATCC 12600, B. subtilis ATCC 23857, E. coli ATCC 11775, and A. baumannii ATCC 19606 were purchased from Shanghai Beinuo Biology. M. luteus ATCC 4698 and S. bongori ATCC43975 were purchased from Shanghai Beisi Biotechnology. V. owensii ems001 and V. alginolyticus xv22 from the intestines of diseased shrimps were isolated in our laboratory. All strains were cultured in the cation‐adjusted Mueller‐Hinton broth (CAMHB) at 37°C to the logarithmic growth phase (OD600 = 0.5). Then, bacteria were gradient‐diluted using fresh CAMHB to a bacterial density of 5 × 10^5 CFU/mL. Antibacterial experiments were performed in a 96‐well plate with 200 μg/mL final peptide concentration. Four experimental groups were set up, including a blank control (200 μL CAMHB), a negative control (180 μL CAMHB plus 20 μL peptide), a positive control (180 μL bacterial culture plus 20 μL ultrapure water), and an experimental group (180 μL bacterial culture plus 20 μL peptide). Three biological replicates were conducted for each group, and OD600 values were measured after incubation at 37°C for 12 h. Every observed value was removed from the blank control group value. […] The MIC of a peptide against a bacterium was determined as the minimum peptide concentration at which there was no visible bacterial growth.

[2] = test system: human normal colon epithelial cells (NCM-460); type: cell-based; settings: 48 h
Description: Human normal colon epithelial cells (NCM‐460) were purchased from the BeNa Culture Collection. Cytotoxicity was measured using the 3‐[4,5‐dimethylthiazol‐2‐yl]−2,5 diphenyl tetrazolium bromide (MTT) assay. The NCM‐460 cells were cultured in the Dulbecco's modified Eagle's medium (DMEM)‐H complete culture medium (90% DMEM‐H, 10% FBS, 10,000 U/mL penicillin, and 10,000 μg/mL streptomycin) to logarithmic growth phase. The suspension of cells was prepared at 10^5 cells/100 μL/well in a 96‐well plate. The peptides selected for the assay were dissolved in the DMEM‐H medium to prepare a 25 mg/mL stock solution, diluted for multiple gradients of 4–512 μg/mL. Afterwards, the peptides that had been diluted (100 μL/well) were introduced into the cells residing on a 96‐well plate. The DMEM‐H medium served as the blank group, the cell suspension as the control group, and the cell suspension combined with the peptide as the experimental group. Each group was conducted in three separate replicates. After 48 h of culture, 10 μL MTT was added to each well and incubated further at 37°C for 4 h. Then 100 μL Formazan solution was added and incubated further at 37°C for 4 h until all the purple crystals were dissolved. The absorbances were measured at OD570. Cell viability was determined by calculating cell viability using the following formula. Cell viability=OD570(experimental)−OD570(blank)/OD570(control)−OD570(blank)×100%.
Then, the CC50 value of each AMP molecule was calculated using an online tool: https://www.aatbio.com/tools/ic50-calculator.

sheep red blood cells = settings: red cells of sheep, 1 h
Description: Freshly collected sheep blood was centrifuged at 3000 rpm for 10 min, and the supernatant was removed. The pellet was washed and resuspended with normal saline water to produce a 2% blood cell solution. Then, 400 μL of peptide solution was added to 100 μL of 2% blood cell solution to achieve final peptide concentrations of 8, 16, 32, 64, and 128 μg/mL. Normal saline water and Triton X‐100 normal saline solution (2%) were used as negative and positive controls, respectively. The samples were incubated in a water bath at 37°C for 1 h, followed by centrifugation at 3000 rpm for 10 min. Then, 200 μL of the supernatant was transferred to a 96‐well plate, and OD values were measured at a wavelength of 545 nm. The hemolysis rate of each sample was calculated using the following formula: Hemolysis ratio=OD545(experimental)−OD545(negative control)/OD545(positive control)−OD545(negative control)×100%.

[3] = test system: Acinetobacter baumannii ATCC 19606; experiment: Antibacterial screen at 200 μg/mL (cell density vs control); type: cell-based; settings: peptide 200 μg/mL, CAMHB, 5 × 10^5 CFU/mL, 37°C, 12 h, OD600; control (no AMP) = 1; three biological replicates
Procedure, shortened: (§1)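 CAMHB, 37°C; inoculum 5 × 10^5 CFU/mL from log phase; peptide 200 μg/mL final; 12 h; OD600 read, blank- and peptide-background-subtracted; n = 3, t-test vs untreated growth control. MIC = lowest peptide concentration with no visible growth.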

[4] = test system: Bacillus subtilis ATCC 23857; experiment: as above; type: cell-based; settings: peptide 200 μg/mL, CAMHB, 5 × 10^5 CFU/mL, 37°C, 12 h, OD600; control (no AMP) = 1; three biological replicates
Procedure, shortened: as §1

[5] = test system: Escherichia coli ATCC 11775; experiment: as above; type: cell-based; settings: peptide 200 μg/mL, CAMHB, 5 × 10^5 CFU/mL, 37°C, 12 h, OD600; control (no AMP) = 1; three biological replicates
Procedure, shortened: as §1

[6] = test system: Micrococcus luteus ATCC 4698; experiment: as above; type: cell-based; settings: peptide 200 μg/mL, CAMHB, 5 × 10^5 CFU/mL, 37°C, 12 h, OD600; control (no AMP) = 1; three biological replicates
Procedure, shortened: as §1

[7] = test system: Salmonella bongori ATCC 43975; experiment: as above; type: cell-based; settings: peptide 200 μg/mL, CAMHB, 5 × 10^5 CFU/mL, 37°C, 12 h, OD600; control (no AMP) = 1; three biological replicates
Procedure, shortened: as §1

[8] = test system: Staphylococcus aureus ATCC 12600; experiment: as above; type: cell-based; settings: peptide 200 μg/mL, CAMHB, 5 × 10^5 CFU/mL, 37°C, 12 h, OD600; control (no AMP) = 1; three biological replicates
Procedure, shortened: as §1

[9] = test system: Vibrio alginolyticus xv22; experiment: as above; type: cell-based; settings: peptide 200 μg/mL, CAMHB, 5 × 10^5 CFU/mL, 37°C, 12 h, OD600; control (no AMP) = 1; three biological replicates
Procedure, shortened: as §1

Vibrio owensii ems001 = experiment: as above; type: cell-based; settings: peptide 200 μg/mL, CAMHB, 5 × 10^5 CFU/mL, 37°C, 12 h, OD600; control (no AMP) = 1; three biological replicates
Procedure, shortened: as §1

| Molecule | MIC against nearly all strains [1] | Cytotoxicity CC50 [2] | Hemolysis ratio (%) at 8μg/mL (sheep red blood cells) | Hemolysis ratio (%) at 16μg/mL (sheep red blood cells) | Hemolysis ratio (%) at 32μg/mL (sheep red blood cells) | Hemolysis ratio (%) at 64μg/mL (sheep red blood cells) | Hemolysis ratio (%) at 128μg/mL (sheep red blood cells) | cell density relative to control, A. baumannii ATCC 19606 [3] | cell density relative to control, B. subtilis ATCC 23857 [4] | cell density relative to control, E. coli ATCC 11775 [5] | cell density relative to control, M. luteus ATCC 4698 [6] | cell density relative to control, S. bongori ATCC 43975 [7] | cell density relative to control, S. aureus ATCC 12600 [8] | cell density relative to control, V. alginolyticus xv22 [9] | cell density relative to control, V. owensii ems001 (Vibrio owensii ems001) |
| --- | --- | --- | --- | --- | --- | --- | --- | --- | --- | --- | --- | --- | --- | --- | --- |
| MKKCRRKVLFGLWRRN [Cand-77] | ≤ 32 µg/mL | 45.263 µg/mL | 3.431% | 4.302% | 5.822% | 8.387% | 12.471% | – | – | – | – | – | – | – | – |
| CSCC[C@H](N)C(=O)N[C@@H](CCCCN)C(=O)N1CCC[C@H]1C(=O)N[C@@H](CS)C(=O)N[C@@H](CCCNC(=N)N)C(=O)N[C@@H](CCCCN)C(=O)N[C@@H](C)C(=O)N[C@@H](CC(C)C)C(=O)N[C@@H](Cc1c[nH]c2ccccc12)C(=O)N[C@@H](CO)C(=O)N[C@H](C(=O)N[C@@H](Cc1c[nH]c2ccccc12)C(=O)N[C@@H](CCCCN)C(=O)N[C@@H](CCCNC(=N)N)C(=O)N[C@@H](CCCCN)C(=O)N[C@@H](CS)C(=O)N[C@@H](CCCNC(=N)N)C(=O)N[C@@H](Cc1c[nH]cn1)C(=O)N[C@@H](CCC(=O)O)C(=O)O)C(C)C [Cand-196] (H-MKPCRKALWSVWKRKCRHE-OH) | – | 18.881 µg/mL | 1.481% | 2.356% | 4.680% | 5.976% | 13.102% | – | – | – | – | – | – | – | – |
| MRIVMCRIGGRL [Cand-102] | – | 5.897 µg/mL | 6.842% | 37.647% | 54.569% | – | 41.034% | – | – | – | – | – | – | – | – |
| MSRSLRNLLKYVWVKVKGE [Cand-217] | ≤ 32 µg/mL | 25.740 µg/mL | 2.490% | 2.604% | 4.447% | 9.600% | – | – | – | – | – | – | – | – | – |
| MRCSLKKIISTFFS [Cand-71] | – | 23.841 µg/mL | 6.779% | 7.213% | 15.000% | – | 19.534% | – | – | – | – | – | – | – | – |
| MVAVMKKLLLKYALK [Cand-82] | – | 10.864 µg/mL | 2.395% | 3.214% | 3.498% | 2.486% | – | – | – | – | – | – | – | – | – |
| MPKVKTKVCHRR [Cand-26, chemically synthesized candidate AMP predicted from marine biofilm bacteria] | – | – | – | – | – | – | – | 0.88 | 0.676 | 1 | 1 | 0.862 | 0.897 | 0 | 0.917 |
| MIYICTRITKCKLHGGCSSVG [Cand-155, chemically synthesized candidate AMP predicted from marine biofilm bacteria] | – | – | – | – | – | – | – | 1 | 0.99 | 1 | 1 | 1 | 0 | 1 | 0.77 |
| MCTIRTCRRSRPHHCSTHC [Cand-101, chemically synthesized candidate AMP predicted from marine biofilm bacteria] | – | – | – | – | – | – | – | 0.879 | 0 | 0.967 | 0.91 | 0.855 | 0.01 | 0 | 1 |
| MWWSKSIHQACFTRYRGYCRWCCTFSIRSCRY [Cand-3, chemically synthesized candidate AMP predicted from marine biofilm bacteria] | – | – | – | – | – | – | – | 0.702 | 1 | 0.786 | 1 | 0.438 | 0 | 0 | 0 |
| MKGLSKCVTHVVTAA [Cand-115, chemically synthesized candidate AMP predicted from marine biofilm bacteria] | – | – | – | – | – | – | – | 1 | 1 | 1 | 1 | 0.935 | 0.907 | 1 | 0.994 |
| MFSKLVKVLLKALCHVFMKCTFW [Cand-61, chemically synthesized candidate AMP predicted from marine biofilm bacteria] | – | – | – | – | – | – | – | 0.884 | 0 | 1 | 1 | 0.633 | 0 | 1 | 0.001 |
| MAWISTRIACCCSTRLRRRIRTCSTSFCR [Cand-218, chemically synthesized candidate AMP predicted from marine biofilm bacteria] | – | – | – | – | – | – | – | 0.029 | 0.004 | 0.021 | 0.052 | 0.938 | 0 | 0.049 | 0.001 |
